Laboratory results: patent US8106055B2, “Substituted amide compounds” (Gruenenthal GmbH, priority 2007, dated 2012)

Tests used:
[1] = molecular target: T1, serotonin (5-HT) reuptake (Rattus norvegicus, UniProt P31652); assay: Inhibition of serotonin (5HT) reuptake in synaptosomes from rat brain; assay type: biochemical; conditions: test concentration of 10 μM; read-out: 5-HT (inhibition of reuptake of serotonin, % inhibition)
T1 construct: synaptosomes are freshly isolated from areas of the rat brain; from tissue; host or cells: rat brain synaptosomes (P2 fraction)
T1 sequence (P31652 whole entry): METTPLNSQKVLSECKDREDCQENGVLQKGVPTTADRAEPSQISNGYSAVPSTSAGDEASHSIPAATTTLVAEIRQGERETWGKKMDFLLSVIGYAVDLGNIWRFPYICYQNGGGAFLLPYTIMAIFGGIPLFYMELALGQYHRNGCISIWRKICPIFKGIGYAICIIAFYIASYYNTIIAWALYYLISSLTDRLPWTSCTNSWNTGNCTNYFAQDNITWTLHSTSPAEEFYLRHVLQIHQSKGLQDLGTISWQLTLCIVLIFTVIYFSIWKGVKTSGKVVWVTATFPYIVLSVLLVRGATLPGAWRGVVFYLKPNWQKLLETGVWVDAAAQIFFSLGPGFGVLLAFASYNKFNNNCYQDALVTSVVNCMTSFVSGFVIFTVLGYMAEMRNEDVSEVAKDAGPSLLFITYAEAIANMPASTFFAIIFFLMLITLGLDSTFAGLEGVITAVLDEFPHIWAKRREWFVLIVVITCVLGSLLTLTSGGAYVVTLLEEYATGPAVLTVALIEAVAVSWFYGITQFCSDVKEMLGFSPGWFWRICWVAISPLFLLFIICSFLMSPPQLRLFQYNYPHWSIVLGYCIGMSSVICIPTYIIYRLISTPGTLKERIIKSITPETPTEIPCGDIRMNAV
Method in brief: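 Compounds screened at 10 μM and reported as percent inhibition of serotonin uptake. Uptake measured in a freshly prepared P2 synaptosomal fraction from rat brain.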

[2] = molecular target: T2, human bradykinin 1 receptor (B1R) (Homo sapiens, UniProt P46663); assay: Functional investigation on the human bradykinin 1 receptor (B1R), Ca2+ FLIPR assay in CHO K1 hB1R cells; assay type: cell-based; conditions: CHO-K1, B1R antagonism human; test substance 10 μM; Ca2+ FLIPR, CHO K1 hB1R cells; read-out: B1R Ant. h [10 μM] % Inhibition
T2 construct: expressed in transfected cells; host or cells: CHO K1 cells
T2 sequence (P46663 1-353): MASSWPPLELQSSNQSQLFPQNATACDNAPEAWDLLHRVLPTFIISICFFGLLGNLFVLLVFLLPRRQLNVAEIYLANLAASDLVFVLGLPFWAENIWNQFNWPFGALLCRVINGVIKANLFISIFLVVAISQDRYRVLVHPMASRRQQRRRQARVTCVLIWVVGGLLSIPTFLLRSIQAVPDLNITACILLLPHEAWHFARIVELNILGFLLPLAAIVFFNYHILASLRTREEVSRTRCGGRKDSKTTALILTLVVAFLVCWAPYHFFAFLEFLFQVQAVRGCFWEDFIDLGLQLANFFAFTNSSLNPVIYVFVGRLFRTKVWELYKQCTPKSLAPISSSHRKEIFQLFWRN
Method in brief: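 Peak Ca2+-dependent fluorescence in B1R-transfected CHO K1 cells measures antagonism of an EC80 agonist challenge given 10-20 min after compound. Agonist is Lys-Des-Arg9-bradykinin for human, Des-Arg9-bradykinin for rat receptor.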

Structure (SMILES)	inhibition at 10 µM [1]	inhibition at 10 µM [2]
CN(C)C(c1cccs1)C1CCC(CCNC(=O)COCCN(C)S(=O)(=O)c2ccc(Cl)cc2Cl)CC1 (stereo not shown) [Example 9, 2-(2-(2,4-dichloro-N-methylphenylsulfonamido)ethoxy)-N-(2-(4-((dimethylamino) (thiophen-2-yl)methyl)cyclohexyl)ethyl)acetamide]	91%	97%
CN(C)C(c1cccs1)C1CCC(NC(=O)COCCN(C)S(=O)(=O)c2ccc(F)cc2)CC1 (stereo not shown) [Example 10, N-(4-((dimethylamino)(thiophen-2-yl)methyl)cyclohexyl)-2-(2-(4-fluoro-N-methylphenylsulfonamido)ethoxy)acetamide]	76%	-17%
CN(C)C(c1cccs1)C1CCC(NC(=O)COC2CCN(S(=O)(=O)c3cccc(C(F)(F)F)c3)C2)CC1 (stereo not shown) [Example 11, N-(4-((dimethylamino)(thiophen-2-yl)methyl)cyclohexyl)-2-(1-(3-(trifluoromethyl)phenylsulfonyl)pyrrolidin-3-yloxy)acetamide]	86%	-16%
Cc1cc(C)c(S(=O)(=O)N2CCC(OCC(=O)NC3CCC(C(c4cccs4)N(C)C)CC3)C2)c(C)c1 (stereo not shown) [Example 12, N-(4-((dimethylamino)(thiophen-2-yl)methyl)cyclohexyl)-2-(1-(mesitylsulfonyl)pyrrolidin-3-yloxy)acetamide]	79%	41%
CN(C)C(c1ccccc1)C1CCC(CNC(=O)COCCN(C)S(=O)(=O)c2c(Cl)cccc2Cl)CC1 (stereo not shown) [Example 13, 2-(2-(2,6-dichloro-N-methylphenylsulfonamido)ethoxy)-N-((4-((dimethylamino)(phenyl)methyl)cyclohexyl)methyl)acetamide]	84%	99%
CN(C)C(c1ccccc1)C1CCC(CNC(=O)COCCN(C)S(=O)(=O)c2c(Cl)cc(Cl)cc2Cl)CC1 (stereo not shown) [Example 14, N-((4-((dimethylamino)(phenyl)methyl)cyclohexyl)methyl)-2-(2-(2,4,6-trichloro-N-methylphenylsulfonamido)ethoxy)acetamide]	99%	104%
CN(C)C(c1ccccc1)C1CCC(CNC(=O)COCCN(Cc2ccccc2)S(=O)(=O)c2ccccc2)CC1 (stereo not shown) [Example 15, 2-(2-(N-benzylphenylsulfonamido)ethoxy)-N-((4-((dimethylamino)(phenyl)methyl)cyclohexyl)methyl)acetamide]	99%	11%
CCN(CCOCC(=O)NCC1CCC(C(c2cccs2)N(C)C)CC1)S(=O)(=O)c1c(C)cc(OC)c(C)c1C (stereo not shown) [Example 16, N-((4-((dimethylamino)(thiophen-2-yl)methyl)cyclohexyl)methyl)-2-(2-(N-ethyl-4-methoxy-2,3,6-trimethylphenylsulfonamido)ethoxy)acetamide]	98%	86%
CN(C)C(c1ccccc1)C1CCC(CNC(=O)COCC2CCCCN2S(=O)(=O)c2ccc(Cl)c(Cl)c2)CC1 (stereo not shown) [Example 17, 2-((1-(3,4-dichlorophenylsulfonyl)piperidin-2-yl)methoxy)-N-((4-((dimethylamino)(phenyl)methyl)cyclohexyl)methyl)acetamide]	93%	81%
CN(C)C(c1ccccc1)C1CCC(CNC(=O)COCC2CCCN2S(=O)(=O)c2ccc(Cl)c(Cl)c2)CC1 (stereo not shown) [Example 18, 2-((1-(3,4-dichlorophenylsulfonyl)pyrrolidin-2-yl)methoxy)-N-((4-((dimethylamino)(phenyl)methyl)cyclohexyl)methyl)acetamide]	95%	62%
COc1ccc(S(=O)(=O)N2Cc3ccccc3CC2COCC(=O)NCC2CCC(C(c3ccccc3)N(C)C)CC2)cc1 (stereo not shown) [Example 19, N-((4-((dimethylamino)(phenyl)methyl)cyclohexyl)methyl)-2-((2-(4-methoxyphenylsulfonyl)-1,2,3,4-tetrahydroisoquinolin-3-yl)methoxy)acetamide]	92%	63%
